Results published in PMC6136390, “Coptisine-induced inhibition of Helicobacter pylori: elucidation of specific mechanisms by probing urease active site and its maturation process” (Journal of Enzyme Inhibition and Medicinal Chemistry, 2018).
Values after ≈ are worked out from the molar mass of the structure shown. Where two headings read alike, the source gives them in different places.

Tests used:
H. pylori strains = test: Minimal inhibitory concentration assay (agar dilution); type: cell-based, Helicobacter pylori; details: Helicobacter pylori, NCTC11637; standard strain NCTC 11637, pH 7.2; read-out: MIC
Description: Fourteen H. pylori strains were used in this study. NCTC 11637 and NCTC 26695 strains were purchased from American Type Culture Collection. Sydney Strain-1 (SS1) was kindly provided by Prof. Richard Ferrero of Monash University, Australia. Clinical isolate ICDC 111001 was provided by Prof. Zhang Jian-zhong of the Chinese Center for Disease Control and Prevention, China. Ten clinical isolates (Hp1868, Hp1869, Hp1870, Hp1871, Hp1872, Hp1873, Hp1874, Hp1875, Hp1876, and Hp1877) were obtained from Renji Hospital, Shanghai Jiaotong University.
(§1) All strains were cultured in Columbia agar base containing 7% sheep blood at 37 °C in a micro-aerophilic environment (5% O2, 10% CO2, and 85% N2). After 3 days, H. pylori was scraped and suspended in phosphate buffered saline (PBS). Turbidimetry was employed to adjust the concentrations of different H. pylori strains (turbidity equivalent to 1.0 McFarland standard). Crude HPU was obtained according to the method described by Matsubara et al.[42]
In this study, different concentrations (12.5, 25, 50, and 100 μg/mL) of berberine, palmatine, epiberberine, jatrorrhizine, and coptisine were used to evaluate antimicrobial activity against the standard H. pylori strain NCTC 11637. The agar dilution method was then used to analyse the antibacterial effects of coptisine against two H. pylori standard strains (SS1 and NCTC 26695) and eleven clinical isolates (ICDC 111001, HP 1868, HP 1869, HP 1870, HP 1871, HP 1872, HP 1873, HP 1874, HP 1875, HP 1876, and HP 1877). In this assay, 100 μL of H. pylori suspension (McFarland = 1.0) was added to the test compound-containing or DMSO-containing (control) Columbia blood agar plate. CLR and MET were used as positive controls in this experiment. Minimum inhibitory concentration (MIC) was defined as the lowest concentration at which no strain growth was observed by visual examination after 3 days. This experiment was repeated twice.

H. pylori cells (SS1) = test: pH shock experiment in vivo (urea-dependent survival of H. pylori); type: cell-based, Helicobacter pylori; details: 30 min; for surviving bacteria, pH =1: 100 mM HCl pH 1, 5 mM urea; for surviving bacteria, pH =7.2: PBS pH 7.2, 5 mM urea; for inhibition at 100 µM: Helicobacter pylori, 0.5 h
Protocol: H. pylori cells (SS1) were harvested, and the concentration was adjusted to Mc = 4 with saline. Then, bacterial samples were mixed with AHA (positive control, 5 mM) or one of the five alkaloids from Rhizoma Coptidis (coptisine, berberine, jatrorrhizine, epiberberine, and palmatine) in 100 mM HCl (pH = 1) or PBS (pH = 7.2) at 37 °C with or without 5 mM urea. After 30 min of incubation, bacteria were collected by centrifugation at 2000g for 10 min and resuspended in the same volume of PBS. A dilution series (1:1–1:10000) was made from the samples, and the dilutions were plated on solid agar for 5 days to form single colony. Samples from urea-free wells were used as controls. Results are expressed as CFU/mL; the experiment was repeated in triplicate. Inhibition rate was calculated using the following equation: Inhibition rate = (Urea group bacterial mean − X group bacterial mean)/Urea group bacterial mean ×100%, where X represents each experimental group.

H. pylori urease (HPU) = target: T1, H. pylori urease (HPU) (Helicobacter pylori, UniProt P69996); test: Urease inhibition assay in vitro (modified Berthelot method); type: biochemical; details: 20 min pre-incubation at 37 °C, 150 mM urea, pH 7.5; read-out: IC50 for HPU
T1 construct: Crude HPU was obtained according to the method described by Matsubara et al; endogenous in cells; host or cells: cultured Helicobacter pylori (strain not specified)
Protocol: as §1
This assay was performed using the modified Berthelot method (phenol-hypochlorite) in 96 well plates. At the beginning of each reaction, different concentrations of urease solution and 150 mM urea as a substrate were mixed in 20 mM HEPES buffer (pH 7.5) at 37 °C. After a 20-min reaction, urease activity was tested by measuring the concentration of ammonia produced by the reaction at 595 nm using the microplate reader (Thermo Fisher Multiskan FC, Instruments, Inc., USA) at ambient temperature. […] One unit (U) of urease activity was defined as the amount of urease required to catalyse 1 μmol urea per min. […]
Coptisine’s ability to inhibit urease activity was determined by measuring amounts of ammonia produced using the modified Berthelot method described above. […] Residual activity (RA %) for each assay was calculated using the following equation: RA % = (activity with inhibitors/activity without inhibitors) × 100%. […]

jack bean urease (JBU) = target: T2, jack bean urease (JBU) (Canavalia ensiformis, UniProt P07374); test: as above; type: biochemical; details: 20 min pre-incubation at 37 °C, 150 mM urea, pH 7.5; read-out: IC50 for JBU
T2 construct: purchased Sigma Aldrich (Steineheim, Germany) type III (catalogue number not given)
Protocol: This assay was performed using the modified Berthelot method (phenol-hypochlorite) in 96 well plates. At the beginning of each reaction, different concentrations of urease solution and 150 mM urea as a substrate were mixed in 20 mM HEPES buffer (pH 7.5) at 37 °C. After a 20-min reaction, urease activity was tested by measuring the concentration of ammonia produced by the reaction at 595 nm using the microplate reader (Thermo Fisher Multiskan FC, Instruments, Inc., USA) at ambient temperature. […] One unit (U) of urease activity was defined as the amount of urease required to catalyse 1 μmol urea per min. These experiments were repeated in triplicate.
Coptisine’s ability to inhibit urease activity was determined by measuring amounts of ammonia produced using the modified Berthelot method described above. The assay mixture, which contained 200 μL of enzyme and 200 μL of coptisine solution (0.16–2.51 mM) in 200 μL of 20 mM HEPES buffer (pH 7.5), was incubated for 20 min at 37 °C in 96-well plates. The reaction was then initiated by adding urea solution (150 mM) to determine residual urease activity. AHA was used as a standard urease inhibitor. […] Residual activity (RA %) for each assay was calculated using the following equation: RA % = (activity with inhibitors/activity without inhibitors) × 100%. […]

urease = system: urease; set-up: method as in PMID 26669678; details: cited from earlier work
[1] = 100 μM compound, pH 1, 5 mM urea
[2] = 100 μM compound, pH 7.2, 5 mM urea
[3] = 100 μM compound, pH 1, 5 mM urea, read-out: Inhibition rate, pH =1
[4] = 100 μM compound, pH 7.2, 5 mM urea, read-out: Inhibition rate, pH =7.2

T1 sequence (P69996 whole entry): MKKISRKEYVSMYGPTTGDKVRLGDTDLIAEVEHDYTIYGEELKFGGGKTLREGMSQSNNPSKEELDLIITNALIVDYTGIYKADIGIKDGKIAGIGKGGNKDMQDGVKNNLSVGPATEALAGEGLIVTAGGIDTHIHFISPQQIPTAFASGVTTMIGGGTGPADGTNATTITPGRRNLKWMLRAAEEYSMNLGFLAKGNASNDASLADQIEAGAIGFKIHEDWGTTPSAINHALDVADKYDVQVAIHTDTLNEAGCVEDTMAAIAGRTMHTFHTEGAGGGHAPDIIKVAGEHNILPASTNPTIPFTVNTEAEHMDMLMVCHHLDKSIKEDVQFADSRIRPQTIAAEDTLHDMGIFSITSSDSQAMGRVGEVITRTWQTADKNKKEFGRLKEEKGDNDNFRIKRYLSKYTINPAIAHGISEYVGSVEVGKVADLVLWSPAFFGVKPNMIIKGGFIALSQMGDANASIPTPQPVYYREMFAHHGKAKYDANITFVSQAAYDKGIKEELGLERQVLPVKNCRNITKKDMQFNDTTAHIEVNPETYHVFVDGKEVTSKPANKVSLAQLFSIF
T1 sequence (P14916 whole entry, further chain): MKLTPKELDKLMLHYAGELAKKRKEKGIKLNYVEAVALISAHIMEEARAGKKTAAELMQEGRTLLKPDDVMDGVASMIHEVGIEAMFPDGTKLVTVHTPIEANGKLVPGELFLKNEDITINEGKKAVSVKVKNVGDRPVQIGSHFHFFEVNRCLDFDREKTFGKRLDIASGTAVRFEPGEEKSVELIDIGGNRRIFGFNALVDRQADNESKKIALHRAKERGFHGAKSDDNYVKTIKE
T2 sequence (P07374 whole entry, looked up): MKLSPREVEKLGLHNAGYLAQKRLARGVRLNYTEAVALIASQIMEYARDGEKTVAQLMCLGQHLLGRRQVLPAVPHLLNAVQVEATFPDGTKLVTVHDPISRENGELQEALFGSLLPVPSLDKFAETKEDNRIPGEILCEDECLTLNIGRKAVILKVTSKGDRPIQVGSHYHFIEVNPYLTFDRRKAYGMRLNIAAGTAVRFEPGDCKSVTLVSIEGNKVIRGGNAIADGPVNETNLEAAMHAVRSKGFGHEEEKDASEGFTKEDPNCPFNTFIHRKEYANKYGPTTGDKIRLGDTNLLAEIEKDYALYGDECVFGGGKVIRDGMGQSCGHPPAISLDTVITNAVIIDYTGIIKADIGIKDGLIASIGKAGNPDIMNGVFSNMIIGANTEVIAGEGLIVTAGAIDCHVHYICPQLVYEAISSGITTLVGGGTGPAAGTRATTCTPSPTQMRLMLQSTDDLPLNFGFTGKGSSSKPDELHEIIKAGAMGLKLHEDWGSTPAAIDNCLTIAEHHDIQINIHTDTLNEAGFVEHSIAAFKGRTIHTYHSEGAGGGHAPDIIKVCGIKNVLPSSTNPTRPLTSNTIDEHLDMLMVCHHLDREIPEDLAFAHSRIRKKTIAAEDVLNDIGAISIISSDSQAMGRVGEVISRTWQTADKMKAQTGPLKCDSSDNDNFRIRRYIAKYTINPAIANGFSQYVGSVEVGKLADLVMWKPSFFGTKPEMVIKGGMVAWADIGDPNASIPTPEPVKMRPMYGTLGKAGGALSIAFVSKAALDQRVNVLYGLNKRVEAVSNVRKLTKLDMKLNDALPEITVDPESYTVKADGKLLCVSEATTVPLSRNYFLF

Row | SMILES | MIC (H. pylori strains) [mg/L] | surviving bacteria, pH =1 (H. pylori cells (SS1); 100 μM compound) [CFU/mL] | surviving bacteria, pH =7.2 (H. pylori cells (SS1); 100 μM compound) | Inhibition rate, pH =1 (H. pylori cells (SS1); [1]) | Inhibition rate, pH =7.2 (H. pylori cells (SS1); [2]) | inhibition at 100 µM (H. pylori cells (SS1); [3]) [%] | inhibition at 100 µM (H. pylori cells (SS1); [4]) [%] | surviving bacteria, pH =1 (H. pylori cells (SS1); 5 mM compound) [CFU/mL] | surviving bacteria, pH =7.2 (H. pylori cells (SS1); 5 mM compound) | Inhibition rate, pH =1 (H. pylori cells (SS1); 5 mM compound, pH 1, 5 mM urea) [%] | Inhibition rate, pH =7.2 (H. pylori cells (SS1); 5 mM compound, pH 7.2, 5 mM urea) [%] | IC50 (H. pylori urease (HPU)) [µM] | IC50 (jack bean urease (JBU)) [µM] | inhibitory activity against urease (urease)
1 | Cc1ncc([N+](=O)[O-])n1CCO [MET, Metronidazole, reference compound] | 0.5 (≈ 2.92 µM) |  |  |  |  |  |  |  |  |  |  |  |  | 
2 | COc1cc2c(cc1OC)-c1cc3ccc(OC)c(OC)c3c[n+]1CC2 [Palmatine] | 100 | 628 ± 110 | 1.2 ± 0.4 ×10^4 CFU/mL | failed to inhibit | failed to inhibit | 0 | 0 |  |  |  |  |  |  | 
3 | COc1cc2c(cc1OC)-c1cc3ccc4c(c3c[n+]1CC2)OCO4 [Epiberberine] | 100 | 481 ± 92 | 1.3 ± 0.3 ×10^4 CFU/mL | failed to inhibit | failed to inhibit | 0 | 0 |  |  |  |  |  |  | 
4 | CC[C@H]1OC(=O)[C@H](C)[C@@H](O[C@H]2C[C@@](C)(OC)[C@@H](O)[C@H](C)O2)[C@H](C)[C@@H](O[C@@H]2O[C@H](C)C[C@H](N(C)C)[C@H]2O)[C@](C)(OC)C[C@@H](C)C(=O)[C@H](C)[C@@H](O)[C@]1(C)O [CLR, Clarithromycin, reference compound] | 0.02 (≈ 0.0267 µM) |  |  |  |  |  |  |  |  |  |  |  |  | 
5 | CC(=O)NO [Acetohydroxamic acid, reference compound] |  |  |  |  |  |  |  | 0 ± 0 | 1.7 ± 0.4 ×10^4 CFU/mL | 100 | 0 | 90 ± 10 | 20 ± 10 | 
6 | COc1ccc2cc3[n+](cc2c1OC)CCc1cc2c(cc1-3)OCO2 [Berberine] | 50 | 587 ± 103 | 1.2 ± 0.4 ×10^4 CFU/mL | failed to inhibit | failed to inhibit | 0 | 0 |  |  |  |  |  |  | fails to show any inhibitory activity
7 | COc1cc2c(cc1O)CC[n+]1cc3c(OC)c(OC)ccc3cc1-2 [Jatrorrhizine] | 100 | 552 ± 98 | 1.2 ± 0.3 ×10^4 CFU/mL | failed to inhibit | failed to inhibit | 0 | 0 |  |  |  |  |  |  | 
